Measurements from patent publication US20250161478A1, “LINKER PAYLOADS AND CONJUGATES THEREOF” (priority 2021, published 2025).
Where two headings read alike, the source gives them in different places.

What was measured:
[1] = tested on: B16-F10 mouse melanoma tumors; assay: In vivo efficacy of PNU-ADCs in B16-F10 mouse melanoma model (Example 31); parameters: species or system mice
Method: In vivo anti-tumor efficacy of anti-TYRP1 ADCs (TAPeD, FLPeD, CHPeD and FLCPeMg) was evaluated in the B16-F10 mouse melanoma model as described above. […] Tumor growth was followed by palpation, and ADC dosings were administered when tumor sizes reached 60-110 mm^3, between 2-7 days after the inoculation. […] A single i.v. injection of 5 mg/kg ADC in PBS was given on the injection day and the tumor sizes were followed for at least 28 days. […] Another xenograft experiment was performed similarly as above. In this experiment, 10 xenografted mice received no treatment, while 10 xenografted mice were given three i.v. doses of 10 mg/kg TA99 antibody on days 2, 7 and 12 after the inoculation (3×10 mg/kg at 5 day intervals). In every one of these 20 mice the tumors grew to >200 mm^3 during 28 days' follow-up period.

[2] = In vivo tolerability of PNU-ADCs in normal mice; parameters: species or system C57BL/6J mice; conditions: for Dose-limiting toxicity dose level / MTD (maximum tolerated dose): single i.v. dose; for Dose-limiting toxicity dose level: n=3, followed up to 30 days; for MTD (maximum tolerated dose): n=3, next lower dose below the dose-limiting toxicity dose level
Method: Tolerability and safety of ADCs conjugated with PNU-EDA linker-payloads were tested in normal C57BL/6J mice. Female young adult mice at the age of 8-10 weeks were used, 3 mice/group (n=3). […] Clinical signs, body weight and general behavior of the animals were observed regularly. Dose-limiting toxicity was observed as either over 10% reduction of average body weight in the group or acute toxicity in any animal in the group. Maximum tolerated dose (MTD) was determined as the next lower dose below the dose-limiting toxicity dose level. ADCs were prepared as described above and a single i.v. dose of the ADC was given on the first day of the study. The mice were followed for up to 30 days if no dose-limiting toxicity was observed.

[3] = tested on: IGR-1 human melanoma cells; assay: Cytotoxicity of ADCs, PrestoBlue cell viability, IGR-1 cells; type: cell-based
Method: (§1) Toxicity of anti-TYRP ADCs was tested with SK-MEL-28 (ATCC: HTB®-72™) SK-MEL-30 (DSMZ: ACC 151) and/or IGR-1 (DSMZ: ACC 236) human melanoma cells.
IGR-1 cells were seeded in 96-well plate, 2000 cells/well, and cultivated in 10% FBS/DMEM-medium under standard cell culture conditions. After overnight culture, the diluted ADCs or unconjugated antibodies (concentration range 0.1 nM-300 nM) were added to cells, and incubated for 3-5 days. The viability of the cells was evaluated with PrestoBlue cell viability reagent.
(§2) The AVG % values and standard deviations were transferred to GraphPad Prism 9.1.2.

[4] = tested on: SK-MEL-30 human melanoma cells; assay: Cytotoxicity of ADCs, PrestoBlue cell viability, SK-MEL-30 cells; type: cell-based; conditions: incubated 3-5 days, ranges are over n experiments
Method: as §1
SK-MEL-30 were seeded in 96-well plate, 2000 cells/well or 3000 cells/well and cultivated in 10% FBS/RPMI 1640-medium under standard cell culture conditions. After overnight culture, diluted ADCs or antibodies were added to the cells, and incubated for 3-5 days. For cell control, the cells were treated with medium without ADC. The viability of the cells was evaluated with PrestoBlue cell viability reagent.
as §2

[5] = tested on: B16-F10 mouse melanoma tumors; assay: In vivo efficacy in B16-F10 syngeneic tumor mice (Example 9); parameters: species or system C57BL/6J mice; conditions: single i.v. 5 mg/kg two days after inoculation, six mice/group
Text: In vivo anti-tumor efficacy of ADC of monoclonal TA99 IgG2a antibody, glycoconjugated TA99 ADC with DBCO-Val-Ser(GlcA)-EDA-PNU payloads (TA99-PNU ADC, DAR=2) and TA99 ADC with maleimidoacetyl-EDA-PNU payloads (TA99-M-PNU ADC, DAR=4), prepared and maleimide-stabilized as described above, was compared to non-treated mice. B16-F10 mouse melanoma cells were obtained from the ATCC (USA) and cultured according to the manufacturer's instructions to study efficacy of antibody-drug conjugates in highly treatment-resistant syngeneic tumors in female adult C57BL/6J mice at the age of about 8-weeks. […] Tumor growth was followed by palpation. […] The first dosings were administered two days after the inoculation due to the high take rate and very rapid growth of the tumors. Mice were randomly divided into study groups. […] Unconjugated antibody (TA99/anti-gp75, Invivogen) was used in this study as the control treatment.

[6] = tested on: HL-60 acute myeloid leukemia (AML) cell xenograft tumors; assay: In vivo efficacy of anti-CD33 ADCs in HL-60 leukemia xenograft; conditions: single i.v. 10 mg/kg
Method: In vivo anti-leukemia xenograft efficacy was evaluated for anti-CD33 ADCs LNAuM (DAR=8.0) and GMAuM (DAR=8.0), as well as anti-CD33 antibodies LN and GM. HL-60 acute myeloid leukemia (AML) cells were obtained from the ATCC and cultured according to the manufacturer's instructions. The study was performed at the TCDM/Central Animal Laboratory, University of Turku, Finland, according to the appropriate ethical committee approval. Cells for inoculation to mice were prepared in vigorous exponential growth phase. 2 million cells in 50% Matrigel were inoculated s.c. to the flank of each mouse (female athymic nude mice between 8-10 weeks of age). Clinical signs and general behavior of the animals was observed regularly. […] Tumor growth was followed by palpation. After caliper measurement, tumor volume was calculated according to 0.5×length×width^2. The first dosings were administered when average tumor volume reached 100 mm^3. […] Intravenous (i.v.) treatment of 10 mg/kg either antibody or ADC in PBS was given once (single dose regimen), while the control group received no treatment.

[7] = ADC concentration in serum by ELISA (systemic exposure); type: in vivo, mice; conditions: trapezoidal method, 10 mg/kg i.v.
Method: Serum samples (from 40 μl blood) were taken from each mouse in the treatment groups as well as two mice in the control group to follow systemic exposure of the compounds on day 1, day 5 and day 9 after dosing. ADC concentrations in the serum samples were analyzed by ELISA using FastELISA Human immunoglobulin quantification kit (RD-Biotech) according to the manufacturer's instructions. Between 1 d-9 d, LNAuM had better systemic exposure than GMAuM and GMAuM was eliminated faster from circulation by Day 9 than LNAuM.

KG-1 cells = assay: Cytotoxicity of anti-CD33 ADCs in KG-1 cells; type: cell-based; conditions: for IC50: KG-1 cells treated for 3 or 4 days, n = 3
Text: as §2

[8] = tested on: Ramos.2G6.4C10 (no CD33 expression) cells; assay: Cytotoxicity of anti-CD33 ADCs in Ramos cells; type: cell-based
Text: as §2

[9] = tested on: Daudi (no CD33 expression) cells; assay: Cytotoxicity of anti-CD33 ADCs in Daudi cells; type: cell-based
Text: as §2

MOLM-13 cells = assay: Cytotoxicity of anti-CD33 ADCs in MOLM-13 cells; type: cell-based; conditions: MOLM-13 cells treated for 3 days
Text: as §2

HL-60 cells = assay: Cytotoxicity of anti-CD33 ADCs in HL-60 cells; type: cell-based; conditions: HL-60 cells treated for 5 days
Text: as §2

[10] = tested on: CD33- cell lines Ramos and Daudi versus CD33+ cells; assay: In vitro therapeutic window, CD33- versus CD33+ cell lines; type: cell-based; conditions: IC50 not reached at 300 nM in Ramos and Daudi versus CD33+ cells
K-562 (low CD33) cells = assay: Cytotoxicity of anti-CD33 ADCs in K-562 cells; type: cell-based; conditions: K-562 (low CD33) cells treated for 3 days
Text: as §2

[11] = single 5 mg/kg i.v. dose on days 2-7 when tumors reach 60-110 mm^3, 6 mice/group, at least 28 days
[12] = 5 mice/group, 30 days follow-up

Chimeric TA99-DBCO-Val-Ser(G1cA)-EDA-PNU [CHPeD]
Number of mice with <200 mm^3 tumor at end of study [1, 11]: 2

FLCPeMa: cysteine engineered flanvotumab HC N299C conjugated with PeMa (MA-Ac-EDA-PNU), DAR 1.7
Dose-limiting toxicity dose level [2]: 20 mg/kg | MTD (maximum tolerated dose) [2]: 15 mg/kg

FLCPeMala: cysteine engineered flanvotumab HC N299C conjugated with PeMala (MA-Ac-β-Ala-EDA-PNU), DAR 2.0
MTD (maximum tolerated dose) [2]: 5 mg/kg | IC50 values against IGR-1 cells (in words) [3]: picomolar

FLCPeMg: cysteine engineered flanvotumab HC N299C conjugated with PeMg (MA-Ac-β-Ala-VS(GlcA)-EDA-PNU), DAR 2.2
Dose-limiting toxicity dose level [2]: 12.5 mg/kg | Number of mice with <200 mm^3 tumor at end of study [1, 11]: 2 | IC50 values against IGR-1 cells (in words) [3]: picomolar

Flanvotumab-DBCO-Val-Ser(GlcA)-EDA-PNU [FLPeD]
Dose-limiting toxicity dose level [2]: 15 mg/kg | MTD (maximum tolerated dose) [2]: 10 mg/kg | Number of mice with <200 mm^3 tumor at end of study [1, 11]: 2 | IC50 values against IGR-1 cells (in words) [3]: picomolar | IC50 [4]: 1.3 to 8.2 nM

TA99
toxicity (in words) ([2]; 20 mg/kg or 30 mg/kg): No toxicity was observed | Number of mice with <200 mm^3 tumor at end of study ([1]; 3 × 10 mg/kg i.v. on days 2, 7 and 12 after inoculation, 10 mice/group, 28 days): 0 | tumor growth (in words) [5]: tumors grew rapidly

gemtuzumab
tumor growth (in words) [6, 12]: tumors grew fast

gemtuzumab-maleimidoacetyl-β-Ala-Val-Ser(Glc)-PAB-MMAU [GMAuM]
toxicity (in words) [6]: no toxicity was detected | mice in which tumors disappeared without regrowth [6, 12]: 5/5 | AUC(1-9 d), partial area under curve between 1 d-9 d [7]: 160 mg·days/L

lintuzumab
Unconjugated antibody: no effect up to (highest concentration tested) (KG-1 cells; KG-1 cells): > 300 nM | Unconjugated antibody: no effect up to (highest concentration tested) ([8]; Ramos cells): > 300 nM | duration of tumor growth inhibition ([6]; 5 mice/group): about 20 days | Unconjugated antibody: no effect up to (highest concentration tested) [9]: > 300 nM

lintuzumab-maleimidoacetyl-β-Ala-Val-Ser(Glc)-PAB-MMAU [LNAuM]
IC50 (MOLM-13 cells; n = 3, read-out: IC50 (AVG ± standard deviation)): 0.039 ± 0.016 nM | IC50 (MOLM-13 cells; read-out: IC50): 0.023 to 0.055 nM | IC50 (HL-60 cells; n = 4, read-out: IC50 (AVG ± standard deviation)): 0.272 ± 0.181 nM | IC50 (HL-60 cells; range over n experiments, read-out: IC50): 0.024 to 0.459 nM | IC50 (KG-1 cells; read-out: IC50): 0.144 to 0.313 nM | IC50 (KG-1 cells; read-out: IC50 (AVG ± standard deviation)): 0.242 ± 0.088 nM | IC50 ([8]; Ramos.2G6.4C10 cells, no CD33 expression): > 300 nM | toxicity (in words) [6]: no toxicity was detected | mice in which tumors disappeared without regrowth [6, 12]: 5/5 | in vitro therapeutic window [10]: greater than 10000 | AUC(1-9 d), partial area under curve between 1 d-9 d [7]: 200 mg·days/L | IC50 ([9]; no CD33 expression, treated for 3 days): > 300 nM | IC50 (K-562 (low CD33) cells): 24 to 66 nM
